The values that follow come from patent US9326513B2, “Fungicidal compositions” (Syngenta Participations AG, priority 2011, dated 2016).

Molecules are shown by their SMILES. Like-named read-outs stand apart in the source and are kept apart here.

Common to all, as to type: cell-based
Assay [1] has as its system Monographella nivalis (syn. Microdochium nivale, Fusarium nivale). The assay can be described thus: Monographella nivalis (snow mould, foot rot of cereals), PDB microtiter plate, visual after 72 hrs. The conditions noted are these: applied alone; for inhibition at 0.015625 ppm: rate 0.015625 ppm.
In a further assay the test system is Botrytis cinerea. As to the kind of experiment: Botrytis cinerea (gray mould), PDB microtiter plate, visual after 72 hrs. The conditions noted are these: for inhibition at 1.25 ppm: rate 1.25 ppm; for inhibition at 2.5 ppm: rate 2.5 ppm; for inhibition at 0.0625 ppm: rate 0.0625 ppm; for inhibition at 0.125 ppm: rate 0.125 ppm; for inhibition at 0.25 ppm: rate 0.25 ppm; for inhibition at 0.5 ppm: rate 0.5 ppm.

The next assay has as its system Septoria tritici. The assay can be described thus: Septoria tritici (leaf blotch), PDB microtiter plate, visual after 72 hrs. Conditions: single compound.
In assay [2] the test system is Mycosphaerella arachidis (y. Cercospora arachidicola). The assay can be described thus: Mycosphaerella arachidis (brown leaf spot of groundnut), PDB microtiter plate, visual after 5-6 days. The conditions noted are these: single compound; for inhibition at 0.0625 ppm / inhibition at 0.00390625 ppm / inhibition at 0.0078125 ppm / inhibition at 0.015625 ppm / inhibition at 0.03125 ppm: read-out: Activity (%).

[3] abbreviates: Botrytis cinerea, alone, read-out: Activity (%).
[4] abbreviates: Botrytis cinerea, single compound.
Where [5] appears, read: Mycosphaerella arachidis, 0.0625 ppm.
[6] abbreviates: Monographella nivalis, 0.0625 ppm.
[7] abbreviates: Monographella nivalis, 0.125 ppm.
The mark [8] stands for this setting: Monographella nivalis, 0.25 ppm.
The mark [9] stands for this setting: Monographella nivalis, rate 0.03125 ppm.
Setting [10] is: Monographella nivalis, rate 0.0625 ppm.
[11] abbreviates: Monographella nivalis, rate 0.125 ppm.
The mark [12] stands for this setting: Mycosphaerella arachidis, 0.00390625 ppm.
Where [13] appears, read: Mycosphaerella arachidis, 0.015625 ppm.
Setting [14] is: Mycosphaerella arachidis, 0.03125 ppm.
Setting [15] is: Zymoseptoria tritici, 0.0625 ppm.
[16] abbreviates: Monographella nivalis, rate 0.25 ppm.
Where [17] appears, read: Monographella nivalis, rate 0.5 ppm.
[18] abbreviates: Monographella nivalis, rate 1 ppm.

Consider `CC(C)(C)[C@@H](O)[C@@H](Cc1ccc(Cl)cc1)n1cncn1` (racemic) [Paclobutrazol], for which the inhibition at 0.625 ppm in assay [1] (Monographella nivalis, 0.625 ppm) came to 0%; in assay [1] (Monographella nivalis, rate 0.625 ppm), 0%; in the assay on Botrytis cinerea (Botrytis cinerea, alone, rate 0.625 ppm) it was 0%; in the assay on Septoria tritici (Zymoseptoria tritici, 0.625 ppm) it was 0%. Also, the inhibition at 1.25 ppm in assay [1] (Monographella nivalis, 1.25 ppm) came out at 0%; in assay [1] (Monographella nivalis, rate 1.25 ppm), 0%; in the assay with Botrytis cinerea (Botrytis cinerea, alone), 0%; in the assay on Botrytis cinerea (setting [4]) it was 0%; in the assay with Septoria tritici (Zymoseptoria tritici, 1.25 ppm), 0%. Moreover, the inhibition at 2.5 ppm in assay [1] (Monographella nivalis, 2.5 ppm) stood at 0%; in the assay on Botrytis cinerea (setting [3]), 0%; in the assay with Botrytis cinerea (Botrytis cinerea, single compound, read-out: Activity (%)) it was 0%. The inhibition at 5 ppm in assay [1] (Monographella nivalis, 5 ppm) was determined as 0%; in the assay on Botrytis cinerea (Botrytis cinerea, single compound, rate 5 ppm, read-out: Activity (%)), 70%; in the assay with Septoria tritici (Zymoseptoria tritici, 5 ppm), 70%. For the same compound, the inhibition at 10 ppm in assay [1] (Monographella nivalis, 10 ppm) was determined as 0%; in the assay with Septoria tritici (Zymoseptoria tritici, 10 ppm), 70%. For the same compound, the inhibition at 0.15625 ppm stood at 0% in assay [1] (Monographella nivalis, rate 0.15625 ppm) and 0% in the assay on Septoria tritici (Zymoseptoria tritici, 0.15625 ppm). The inhibition at 0.3125 ppm in assay [1] (Monographella nivalis, rate 0.3125 ppm) amounted to 0%; with Septoria tritici (Zymoseptoria tritici, 0.3125 ppm), 20%. Moreover, in the assay with Septoria tritici (5 ppm), the “Activity (%)” value is on record as 50%.
On to `Cn1cc(C(=O)Nc2ccc(F)cc2-c2ccc(Cl)c(Cl)c2)c(C(F)F)n1` [Bixafen], for which the figures for the “Activity (%)” value in assay [1] (0.25 ppm), in assay [2] (0.03125 ppm) and in assay [2] (0.0625 ppm) were 20%, 50% and 70%, respectively.
For `Cc1cc(C2CC2)nc(Nc2ccccc2)n1` [Cyprodinil], the inhibition at 0.0015625 ppm came out at 0% in assay [1] (Monographella nivalis, 0.0015625 ppm) and 0% in assay [2] (Mycosphaerella arachidis, 0.0015625 ppm). Moreover, the inhibition at 0.003125 ppm was determined as 20% in assay [1] (Monographella nivalis, 0.003125 ppm) and 0% in assay [2] (Mycosphaerella arachidis, 0.003125 ppm). This compound also showed an inhibition at 0.00078125 ppm in assay [2] (Mycosphaerella arachidis, 0.00078125 ppm) of 0%. For the same compound, the inhibition at 0.00125 ppm in assay [2] (Mycosphaerella arachidis, 0.00125 ppm) came out at 0%. The inhibition at 0.025 ppm in assay [2] (Mycosphaerella arachidis, 0.025 ppm) is 0%. Besides, the inhibition at 0.05 ppm in assay [2] (Mycosphaerella arachidis, 0.05 ppm) was 0%. Also, the inhibition at 0.0625 ppm in assay [2] (setting [5]) amounted to 0%. Besides, the inhibition at 0.1 ppm in assay [2] (Mycosphaerella arachidis, 0.1 ppm) is 0%. Also, the inhibition at 0.2 ppm in assay [2] (Mycosphaerella arachidis, 0.2 ppm) turned out to be 0%.
`CC(Cc1ccc(C(C)(C)C)cc1)CN1C[C@@H](C)O[C@@H](C)C1` (stereo partly drawn) [Fenpropimorph]: the inhibition at 0.0625 ppm in assay [1] (setting [6]) came out at 0%; in assay [1] (setting [10]), 0%; in assay [2] (setting [5]), 70%; in the assay with Botrytis cinerea (setting [3]), 0%. Further, the inhibition at 0.125 ppm amounted to 0% in assay [1] (setting [7]); 0% in assay [1] (setting [11]); 0% in the assay with Botrytis cinerea (Botrytis cinerea, alone); 0% with Botrytis cinerea (setting [4]). The inhibition at 0.25 ppm in assay [1] (setting [8]) is 0%; in the assay on Botrytis cinerea (Botrytis cinerea, alone), 0%; with Botrytis cinerea (setting [4]), 0%. In addition, the inhibition at 0.5 ppm amounted to 0% in assay [1] (Monographella nivalis, 0.5 ppm); 70% in the assay with Botrytis cinerea (Botrytis cinerea, alone); 70% with Botrytis cinerea (setting [4]). The same compound yielded an inhibition at 2 ppm in assay [1] (Monographella nivalis, 2 ppm) of 20%. In addition, the inhibition at 0.0078125 ppm in assay [1] (Monographella nivalis, rate 0.0078125 ppm) was found to be 0%; in assay [2] (Mycosphaerella arachidis) it was 20%. The values for the inhibition at 0.015625 ppm in assay [1] (Monographella nivalis) and in assay [2] (setting [13]) were 0% and 50%, respectively. The inhibition at 0.03125 ppm in assay [1] (setting [9]) amounted to 0%; in assay [2] (setting [14]), 50%. Further, the inhibition at 0.00390625 ppm in assay [2] (setting [12]) amounted to 20%.
As for `O=[N+]([O-])c1cc(C(F)(F)F)c(Cl)c([N+](=O)[O-])c1Nc1ncc(C(F)(F)F)cc1Cl` [Fluazinam], in assay [2] (setting [12]), the inhibition at 0.00390625 ppm worked out at 0%. In addition, the inhibition at 0.0078125 ppm in assay [2] (Mycosphaerella arachidis) came to 0%. The inhibition at 0.015625 ppm in assay [2] (setting [13]) came to 0%; with Septoria tritici (Zymoseptoria tritici, 0.015625 ppm) it was 0%. The inhibition at 0.03125 ppm worked out at 0% in assay [2] (setting [14]) and 20% with Septoria tritici (Zymoseptoria tritici). Further, the inhibition at 0.0625 ppm is 20% in assay [2] (setting [5]) and 70% in the assay with Septoria tritici (setting [15]).
On to `OC(Cn1cncn1)(c1ccc(F)cc1)c1ccccc1F` (stereo not drawn) [Flutriafol], for which the inhibition at 0.0625 ppm in assay [1] (setting [6]) and in assay [1] (setting [10]) was 0% throughout. Further, the inhibition at 0.125 ppm in assay [1] (setting [7]) was determined as 0%; in assay [1] (setting [11]) it was 0%; in the assay with Botrytis cinerea (Botrytis cinerea, alone), 0%. Moreover, the inhibition at 0.25 ppm in assay [1] (setting [8]) was found to be 0%; in assay [1] (setting [16]), 0%; in the assay with Botrytis cinerea (Botrytis cinerea, alone), 0%. Also, the inhibition at 0.5 ppm in assay [1] (Monographella nivalis, 0.5 ppm) came out at 0%; in assay [1] (setting [17]) it was 0%; with Botrytis cinerea (Botrytis cinerea, alone) it was 0%; in the assay with Septoria tritici (Zymoseptoria tritici, 0.5 ppm), 0%. In assay [1] (setting [9]), this compound showed an inhibition at 0.03125 ppm of 0%. Besides, the inhibition at 1 ppm in assay [1] (setting [18]) was 0%; with Botrytis cinerea (Botrytis cinerea, alone, rate 1 ppm), 0%; in the assay with Septoria tritici (Zymoseptoria tritici, 1 ppm), 0%. Moreover, the inhibition at 2 ppm in assay [1] (Monographella nivalis, rate 2 ppm) came to 0%; in the assay on Botrytis cinerea (Botrytis cinerea, alone, rate 2 ppm) it was 0%.
Regarding `C#CCOc1ccc(CCNC(=O)C(OCC#C)c2ccc(Cl)cc2)cc1OC` (stereo not drawn) [Mandipropamid], the “Activity (%)” value came to 0% in assay [1] (rate 0.03125 ppm); 0% in assay [1] (rate 0.0625 ppm); 0% in the assay with Botrytis cinerea (alone, rate 5 ppm); 0% with Botrytis cinerea (alone, rate 10 ppm); 0% in the assay on Botrytis cinerea (alone, rate 20 ppm); 70% in the assay on Septoria tritici (0.5 ppm).
On to `CC1(C)CCC(Cc2ccc(Cl)cc2)C1(O)Cn1cncn1` (stereo not drawn) [Metconazole], for which the results for the inhibition at 0.0625 ppm (in assay [1] (setting [6]); in assay [1] (setting [10]); in the assay with Septoria tritici (setting [15])) were 0%, 0% and 70%, respectively. The inhibition at 0.125 ppm in assay [1] (setting [7]) and in assay [1] (setting [11]) was 0% throughout. For the same compound, the inhibition at 0.25 ppm in assay [1] (setting [8]) and in assay [1] (setting [16]) was 0% each time. Further, the inhibition at 0.5 ppm in assay [1] (Monographella nivalis, 0.5 ppm) was 0%; in assay [1] (setting [17]), 0%. Besides, the inhibition at 1 ppm in assay [1] (Monographella nivalis, 1 ppm) worked out at 20%; in assay [1] (setting [18]) it was 20%. In addition, the inhibition at 0.015625 ppm in assay [1] (Monographella nivalis) stood at 0%; in the assay with Botrytis cinerea (Botrytis cinerea, alone, rate 0.015625 ppm) it was 0%. The inhibition at 0.03125 ppm in assay [1] (setting [9]) is 0%; with Botrytis cinerea (Botrytis cinerea, alone, rate 0.03125 ppm, read-out: Activity (%)) it was 0%; in the assay on Septoria tritici (Zymoseptoria tritici), 0%. The “Activity (%)” value with Septoria tritici (0.0625 ppm) amounted to 50%.
With `CCCC1COC(Cn2cncn2)(c2ccc(Cl)cc2Cl)O1` (stereo not drawn) [Propiconazole], the inhibition at 0.0625 ppm (in assay [1] (setting [6]); in assay [1] (setting [10]); in the assay on Botrytis cinerea (setting [3])) was 0% throughout. Also, the inhibition at 0.125 ppm in assay [1] (setting [7]) worked out at 0%; in assay [1] (setting [11]), 0%; in the assay on Botrytis cinerea (Botrytis cinerea, alone), 0%; in the assay on Septoria tritici (Zymoseptoria tritici, 0.125 ppm), 50%. Also, the inhibition at 0.25 ppm in assay [1] (setting [8]) was 0%; in assay [1] (setting [16]), 0%; with Botrytis cinerea (Botrytis cinerea, alone), 0%; with Botrytis cinerea (setting [4]), 0%. The inhibition at 0.5 ppm in assay [1] (Monographella nivalis, 0.5 ppm) stood at 0%; with Botrytis cinerea (Botrytis cinerea, alone) it was 50%; with Botrytis cinerea (setting [4]) it was 50%. In assay [1] (Monographella nivalis, 1 ppm), the inhibition at 1 ppm was 20%. The same compound displayed an inhibition at 0.015625 ppm in assay [1] (Monographella nivalis) of 0%. The inhibition at 0.03125 ppm in assay [1] (setting [9]) is 0%.
Consider `Cn1cc(C(=O)Nc2ccccc2C2CC2C2CC2)c(C(F)F)n1` (stereo not drawn) [Sedaxan], for which the “Activity (%)” value in assay [2] (0.00390625 ppm), in assay [2] (0.015625 ppm), in assay [2] (0.03125 ppm), in assay [2] (0.0625 ppm) and in assay [2] (0.125 ppm) was 0% in each case.
